Test results as given in US8481497B2, “Therapeutic agent for cancer, and method for treatment of cancer” (Sapporo Medical University, priority 2007, dated 2013).

Columns and labels:
FGFR1 in KMS12BM cells = assay: FGFR1 expression at mRNA level in multiple myeloma cell line by DNA array; assay type: cell-based; settings: 1 micro M decitabine (72 hours) and/or 0.5 micro g/mL ADR (24 hours)
Description: Using a DNA array, 1 micro M decitabine and/or 0.5 micro g/mL ADR was administered to KMS12BM cells and a change in expression of FGFR1 at the mRNA level was examined 72 hours after administration of decitabine and 24 hours after administration of ADR. In the graph, the expression level ratio relative to the expression level in the cell line to which no drug was administered is shown on the vertical axis. In the graph, the decitabine administration group is shown by Aza.

FGFR1 = settings: human hepatic stellate cells; cited from earlier work

COc1cccc2c1C(=O)c1c(O)c3c(c(O)c1C2=O)C[C@@](O)(C(=O)CO)C[C@@H]3O[C@H]1C[C@H](N)[C@H](O)[C@H](C)O1 [ADR, adriamycin]
expression level of FGFR1 at the mRNA level (FGFR1 in KMS12BM cells): increased

B1: interferon-gamma: type II interferon, a cytokine (protein, UniProt P01579 24-161, looked up)
Interferon gamma: QDPYVKEAENLKKYFNAGHSDVADNGTLFLGILKNWKEESDRKIMQSQIVSFYFKLFKNFKDDQSIQKSVETIKEDMNVKFFNSNKKKRDDFEKLTNYSVTDLNVQRKAIHELIQVMAELSPAAKTGKRKRSQMLFRG
expression of FGFR1 (FGFR1): reduces
